In patent US8735406B2, “8-oxodihydropurine derivative” (Dainippon Sumitomo Pharma Co., Ltd., priority 2009, dated 2014) one finds inhibition and IC50 data, which are given here for 24 molecules.

Like-named read-outs stand apart in the source and are kept apart here.

The assay concerns the target T1, FAAH (Rattus norvegicus, UniProt P97612).
T1 construct: Preparation of Rat Brain Membranes Preparations (FAAH Enzyme Solution); from tissue; host or cells: rat cerebrum (brain membrane preparation)
T1 sequence (P97612 1-579): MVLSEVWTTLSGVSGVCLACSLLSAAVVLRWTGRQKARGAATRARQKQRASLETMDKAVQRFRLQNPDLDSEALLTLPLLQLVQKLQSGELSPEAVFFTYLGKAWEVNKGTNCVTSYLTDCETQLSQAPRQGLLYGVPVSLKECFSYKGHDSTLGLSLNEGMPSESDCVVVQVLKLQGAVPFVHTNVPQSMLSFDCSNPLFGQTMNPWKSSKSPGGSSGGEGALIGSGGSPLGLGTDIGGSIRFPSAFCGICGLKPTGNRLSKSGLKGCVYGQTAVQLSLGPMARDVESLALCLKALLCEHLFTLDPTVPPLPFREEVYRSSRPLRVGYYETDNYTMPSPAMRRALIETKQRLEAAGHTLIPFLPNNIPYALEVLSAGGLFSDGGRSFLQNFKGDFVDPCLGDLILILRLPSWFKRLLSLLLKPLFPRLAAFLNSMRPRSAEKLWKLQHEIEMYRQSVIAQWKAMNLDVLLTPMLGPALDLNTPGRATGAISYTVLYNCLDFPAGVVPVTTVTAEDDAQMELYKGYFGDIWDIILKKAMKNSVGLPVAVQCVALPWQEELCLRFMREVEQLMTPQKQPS
Briefly: Determination of FAAH inhibitory activity in rat (rat brain membrane preparations, [3H]-anandamide hydrolysis). It counts as biochemical. As to conditions: for inhibition at 0.1 µM: read-out: FAAH Inhibition, Inhibition Rate at 100 nM; for IC50: test substance 0.1 nM to 1 μM, read-out: FAAH Inhibition IC50. As to the method:
Determination of FAAH Inhibitory Activity in Rat
The preparation of rat brain membranes preparations and the determination of FAAH inhibitory activity were carried out according to the Jonsson et al. method [Br. J. Pharmacol., 133, 1263 (2001)].
(1) Preparation of Rat Brain Membranes Preparations (FAAH Enzyme Solution)
The cerebrum was extracted from rats and was freeze-stored at −80° C. To the frozen cerebrum was added 4° C. enzyme homogenization buffer (20 mM HEPES-buffer pH 7.0, 1 mM MgCl2) and the mixture was homogenized using a homogenizer in ice and the homogenates were centrifuged (36,000×g for 20 minutes). After repeating operations of homogenization and centrifugation, the tissue pellets were re-suspended with 4° C. enzyme homogenization buffer. The re-suspensions were incubated at 37° C. for 15 minutes and were centrifuged (36,000×g for 20 minutes), and the resulting tissue membranes were then re-suspended with enzyme solution preparation buffer (50 mM Tris-HCl buffer pH 7.4, 1 mM EDTA, 3 mM MgCl2). The protein concentration in the resulting membrane preparations were determined according to a colorimetry method (BCA Protein Assay: Pierce Inc.) and the preparations were freeze-stored at −80° C. until used for assay.
(2) Screening of Substances for Inhibiting FAAH Activity
To the above membrane preparations (final concentration 100 μg/mL) were added a solution of test substances in DMSO (final concentration in DMSO 1%) and an assay buffer (for final preparation; 22 mM Tris-HCl (pH 7.6), 1.4 mM EDTA, 1.5% BSA, 0.6 mM MgCl2) and the resulting mixtures were preincubated at 37° C. for 10 minutes. Thereto was added a substrate solution (for final preparation; 2 nM [^3H]-Anandamide (American Radiolabeled Chemicals Inc.)+2 μM Anandamide (Sigma-Aldrich Co.)) (final assay volume of 200 μL) and the resulting mixtures were incubated at 37° C. for 10 minutes. Here in control experiment, DMSO was added instead of the solution of test substance in DMSO. Also in blank experiment, DMSO was added instead of the solution of test substance in DMSO and an enzyme solution preparation buffer was also added instead of the membrane preparations. After the incubation, thereto was added a 400 μL ice-cooled solution of chloroform and methanol (1:1 ratio by volume) and the resulting mixtures were stirred. An ethanolamine (ethanolamine-1-[^3H]) as a decomposed product was separated into an upper layer (water/methanol layer) by centrifugation (1,000×g for 10 minutes). The upper layer 200 μL was transferred into 96 well Deepwell Luma Plate-96 (PerkinElmer Inc.) and the radioactivity was measured by microplate scintillation counter (TopCount NXT™: […].). The substances showing a lower measured value compared to those of control were selected as the compound having a FAAH inhibitory activity.
(3) Determination of IC50 Value
The test substances were prepared such that the final concentration of the compounds is within the range of 0.1 nM to 1 μM and were then examined on the effect on FAAH activity according to the above-mentioned protocol.

[1] abbreviates: rat brain membrane preparations, 100 nM test substance.
[2] abbreviates: rat brain membrane preparations.

Consider `CCN(CC)C(=O)n1c(=O)n(C)c2nc(-c3ccccc3)ncc21` [Example 40], for which, under setting [1], the inhibition at 0.1 µM was determined as 20%. Besides, under setting [2], the IC50 was > 100 nM.

For the molecule `Cn1c(=O)n(C(=O)N2CCCCCC2)c2cnc(-c3ccccc3)nc21` [Example 41], the inhibition at 0.1 µM under setting [1] is 33%. Moreover, under setting [2], the IC50 was > 100 nM.

In the case of `CN(C(=O)n1c(=O)n(C)c2nc(-c3ccccc3)ncc21)C1CCCCC1` [Example 43], under setting [1], the inhibition at 0.1 µM came to 20%. For the same molecule, the 50% inhibitory concentration (IC50) under setting [2] is > 100 nM.

Turning to `Cn1c(=O)n(C(=O)N2CCCC2Cc2ccccc2)c2cnc(-c3ccccc3)nc21` (stereo not drawn) [Example 44], for the setting “rat brain membrane preparations, 1000 nM test substance (stated in the cell), read-out: FAAH Inhibition, Inhibition Rate (1000 nM)”, the inhibition at 1 µM turned out to be 30%. For the same molecule, under setting [2], the IC50 is > 100 nM.

For the molecule `COc1cccc(-c2ncc3c(n2)n(C)c(=O)n3C(=O)N2CC[C@@H](OC)C2)c1` [Example 47], under setting [1], the inhibition at 0.1 µM was 16%. Also, the half-inhibitory concentration (IC50) under setting [2] is > 100 nM.

As for `COc1cccc(-c2ncc3c(n2)n(C)c(=O)n3C(=O)N(C)C)c1` [Example 48, 2-(3-Methoxyphenyl)-N,N,9-trimethyl-8-oxo-8,9-dihydro-7H-purine-7-carboxamide], the inhibition at 0.1 µM under setting [1] came to 100%. For the same molecule, the IC50 under setting [2] was 4 nM.

Regarding `COc1cccc(-c2ncc3c(n2)n(C)c(=O)n3C(=O)N2CCCCC2)c1` [Example 49, 2-(3-Methoxyphenyl)-9-methyl-7-(piperidin-1-ylcarbonyl)-7,9-dihydro-8H-purine-8-one], the inhibition at 0.1 µM under setting [1] stood at 99%. Moreover, the IC50 under setting [2] is 6 nM.

Take `Cn1c(=O)n(C(=O)N2CCN(c3ccc(C(F)(F)F)cn3)CC2)c2cnc(-c3ccccc3)nc21` [Example 50, 9-Methyl-2-phenyl-7-({4-[5-(trifluoromethyl)-pyridin-2-yl]piperazin-1-yl}carbonyl)-7,9-dihydro-8H-purine-8-one]: under setting [1], the inhibition at 0.1 µM stood at 98%. Moreover, under setting [2], the IC50 came out at 9 nM.

For the molecule `Cn1c(=O)n(C(=O)N2CCN(c3ncccn3)CC2)c2cnc(-c3ccccc3)nc21` [Example 51, 9-Methyl-2-phenyl-7-{[4-(pyrimidin-2-yl)piperazin-1-yl]carbonyl}-7,9-dihydro-8H-purine-8-one], the inhibition at 0.1 µM under setting [1] came to 97%. Further, under setting [2], the IC50 was 25 nM.

Take `Cc1cccc(N2CCN(C(=O)n3c(=O)n(C)c4nc(-c5ccccc5)ncc43)CC2)n1` [Example 53, 9-Methyl-7-{[4-(6-methylpyridin-2-yl)piperazin-1-yl]carbonyl}-2-phenyl-7,9-dihydro-8H-purine-8-one]: the inhibition at 0.1 µM under setting [1] was found to be 97%. Further, the IC50 under setting [2] stood at 19 nM.

With `COc1cccc(N2CCN(C(=O)n3c(=O)n(C)c4nc(-c5ccccc5)ncc43)CC2)n1` [Example 54, 7-{[4-(6-Methoxypyridin-2-yl)piperazine-1-yl]carbonyl}-9-methyl-2-phenyl-7,9-dihydro-8H-purine-8-one], under setting [1], the inhibition at 0.1 µM is 99%. Also, under setting [2], the IC50 stood at 24 nM.

In the case of `Cn1c(=O)n(C(=O)N2CCN(c3nccs3)CC2)c2cnc(-c3ccccc3)nc21` [Example 55, 9-Methyl-2-phenyl-7-{[4-(1,3-thiazol-2-yl)piperazin-1-yl]carbonyl}-7,9-dihydro-8H-purine-8-one], under setting [1], the inhibition at 0.1 µM was found to be 94%. Under setting [2], the half-inhibitory concentration (IC50) came out at 25 nM.

`Cc1ccc(N2CCN(C(=O)n3c(=O)n(C)c4nc(-c5ccccc5)ncc43)CC2)nc1` [Example 56, 9-Methyl-7-{[4-(5-methylpyridin-2-yl)piperazin-1-yl]carbonyl}-2-phenyl-7,9-dihydro-8H-purine-8-one]: the inhibition at 0.1 µM under setting [1] is 100%. Besides, under setting [2], the IC50 was determined as 7 nM.

On to `COc1cccc(-c2ncc3c(n2)n(C)c(=O)n3C(=O)N2CCC2)c1` [Example 57, 7-(Azetidin-1-ylcarbonyl)-2-(3-methoxyphenyl)-9-methyl-7,9-dihydro-8H-purine-8-one], for which the inhibition at 0.1 µM under setting [1] was 101%. Further, the IC50 under setting [2] worked out at 5 nM.

In the case of `COc1cccc(-c2ncc3c(n2)n(C)c(=O)n3C(=O)N2CCOCC2)c1` [Example 58], under setting [1], the inhibition at 0.1 µM came out at 76%. The IC50 under setting [2] stood at 62 nM.

Take `COCCN(C)C(=O)n1c(=O)n(C)c2nc(-c3cccc(OC)c3)ncc21` [Example 59, N-(2-Methoxyethyl)-2-(3-methoxyphenyl)-N,9-dimethyl-8-oxo-8,9-dihydro-7H-purine-7-carboxamide]: the inhibition at 0.1 µM under setting [1] stood at 99%. Moreover, under setting [2], the IC50 was 26 nM.

For `CCN(C)C(=O)n1c(=O)n(C)c2nc(-c3cccc(OC)c3)ncc21` [Example 60, N-Ethyl-2-(3-methoxyphenyl)-N,9-dimethyl-8-oxo-8,9-dihydro-7H-purine-7-carboxamide], the inhibition at 0.1 µM under setting [1] turned out to be 99%. The IC50 under setting [2] stood at 6 nM.

Turning to `COc1cccc(-c2ncc3c(n2)n(C)c(=O)n3C(=O)N2CC[C@@H](F)C2)c1` [Example 62, 7-{[(3R)-3-Fluoropyrrolidin-1-yl]carbonyl}-2-(3-methoxyphenyl)-9-methyl-7,9-dihydro-8H-purine-8-one], the inhibition at 0.1 µM under setting [1] came to 90%. In addition, the IC50 under setting [2] was 26 nM.

For `COc1cccc(-c2ncc3c(n2)n(C)c(=O)n3C(=O)N2CC[C@H](F)C2)c1` [Example 63, 7-{[(3S)-3-Fluoropyrrolidin-1-yl]carbonyl}-2-(3-methoxyphenyl)-9-methyl-7,9-dihydro-8H-purine-8-one], the inhibition at 0.1 µM under setting [1] was determined as 100%. Further, the IC50 under setting [2] came out at 17 nM.

For the molecule `COc1cccc(-c2ncc3c(n2)n(C)c(=O)n3C(=O)N(C)CCOc2ccccc2)c1` [Example 65, 2-(3-Methoxyphenyl)-N,9-dimethyl-8-oxo-N-(2-phenoxyethyl)-8,9-dihydro-7H-purine-7-carboxamide], the inhibition at 0.1 µM under setting [1] was found to be 98%. The IC50 under setting [2] came to 3 nM.

As to `COc1cccc(-c2ncc3c(n2)n(C)c(=O)n3C(=O)N2CCC(Cc3ccccc3)CC2)c1` [Example 66, 7-[(4-Benzylpiperidin-1-yl)carbonyl]-2-(3-methoxyphenyl)-9-methyl-7,9-dihydro-8H-purine-8-one], the inhibition at 0.1 µM under setting [1] was determined as 93%. Also, the IC50 under setting [2] was determined as 46 nM.

On to `COc1cccc(-c2ncc3c(n2)n(C)c(=O)n3C(=O)N2CCN(CCc3ccccc3)CC2)c1` [Example 67, 2-(3-Methoxyphenyl)-9-methyl-7-{[4-(2-phenylethyl-)piperazin-1-yl]carbonyl}-7,9-dihydro-8H-purine-8-one], for which the inhibition at 0.1 µM under setting [1] was found to be 97%. Further, the IC50 under setting [2] amounted to 7 nM.

As to `COc1cccc(-c2ncc3c(n2)n(C)c(=O)n3C(=O)N2CCC(CCc3ccc(Cl)cc3)CC2)c1` [Example 68, 7-({4-[2-(4-Chlorophenyl)ethyl]piperidin-1-yl}carbonyl)-2-(3-methoxyphenyl)-9-methyl-7,9-dihydro-8H-purine-8-one], the inhibition at 0.1 µM under setting [1] was found to be 98%. Under setting [2], the IC50 was 6 nM.

On to `COc1cccc(-c2ncc3c(n2)n(C)c(=O)n3C(=O)N(C)CCc2ccc(Cl)cc2)c1` [Example 69, N-[2-(4-Chlorophenyl)ethyl]-2-(3-methoxyphenyl)-N,9-dimethyl-8-oxo-8,9-dihydro-7H-purine-7-carboxamide], for which the inhibition at 0.1 µM worked out at 101%. The IC50 under setting [2] was 2 nM.
